Values quoted from earlier work in US6682694B2, “Uncomplexed cyclodextrin solutions for odor control on inanimate surfaces” (The Procter & Gamble Company, priority 1994, dated 2004).

Details: not given

| Structure (SMILES) | solubility in water |
| --- | --- |
| ClC=CC[N+]12CN3CN(CN(C3)C1)C2.[Cl-] [Dowicil 200, 1-(3-Chlorallyl)-3,5,7-triaza-1-azoniaadamantane chloride] | freely soluble in water |

Same assay, conditions: in water

| Structure (SMILES) | water solubility |
| --- | --- |
| OCCOc1ccccc1 [2-phenoxyethanol] | about 2.67% |
| OCCc1ccccc1 [2-phenylethanol] | about 2% |
| [Na+].[O-][n+]1ccccc1[S-] [sodium pyrithione] | about 50% |
| O=[N+]([O-])C1(Br)COCOC1 [Bronidox L, 5-bromo-5-nitro-1,3-dioxane] | about 0.46% |

Now from value to compound:

| water solubility | Structure (SMILES) |
| --- | --- |
| about 70% | [H]/N=C(\N/C(=N/[H])NCCCCCCNC(=N)NC(=N)Nc1ccc(Cl)cc1)Nc1ccc(Cl)cc1 [chlorhexidine digluconate, 1,1′-hexamethylene bis(5-(p-chlorophenyl)biguanide), reference compound] |
| more than 50% | CC1(C)C(=O)N(CO)C(=O)N1CO [DMDM hydantoin, 1,3-bis(hydroxymethyl)-5,5-dimethyl-2,4-imidazolidinedione] |
| about 1.8% | [H]/N=C(\N/C(=N/[H])NCCCCCCNC(=N)NC(=N)Nc1ccc(Cl)cc1)Nc1ccc(Cl)cc1 [chlorhexidine diacetate, 1,1′-hexamethylene bis(5-(p-chlorophenyl)biguanide), reference compound] |
| about 4% | OCc1ccccc1 [benzyl alcohol] |
| about 25% | O=[N+]([O-])C(Br)(CO)CO [Bronopol, 2-bromo-2-nitropropane-1,3-diol] |
| about 0.8% | CC(C)(O)C(Cl)(Cl)Cl [chlorobutanol, 1,1,1-Trichloro-2-methylpropan-2-ol, reference compound] |
